Where two headings read alike, the source gives them in different places.
Assays:
[1] = literature data (18, 19); cited from earlier work
[2] = Flow Induced Dispersion Analysis (FIDA) equilibrium binding constant with βCD; conditions: complex with βCD, 67 mM phosphate buffer pH 7.4, 25° C., ±standard deviation
Protocol: The sample volume introduced into the capillary in these experiments corresponds to 9 nL. […] The peak shape may be fitted to a Gaussian peak shape (described in the examples); in this way the temporal peak variance σ^2 can be estimated.
[formula] where σA^2 is the observed variance obtained from a Gaussian fit in the absence of an interacting analyte and σAL^2 is the variance corresponding to the complex AL. […] Corrections due to sample injection and detector variances may be introduced, but as they are small and constant under the present conditions they are neglected.
[formula] where [L] is the concentration of free analyte. […]
In a series of experiments the concentration of βCD in the background electrolyte was varied and the peak variances determined.
βCD, α-naphthol and naproxen was obtained form Sigma-Aldrich. […] The amount of water present in βCD was determined by gravimetric analysis upon drying to constant weight in vacuo at ˜60° C. […]

[3] = Diffusion coefficients from FIDA peak variance (eq 2, capillary radius 25 μm); format: physicochemical; conditions: 67 mM phosphate buffer pH 7.4, 25° C., calculated using eq 2, capillary radius 25 μm; for Diffusion coefficient of the complex DAL: complex with βCD
Text: According to Taylor-Aris theory the temporal peak variance is related to ligand (affinity probe) diffusivity (13,14). Under optimal conditions for a pressure driven flow in a cylindrical capillary the peak variance is inversely proportional to the diffusion coefficient, D, according to (15): [formula] where Rc is the radius of the capillary tube, and tR is the peak appearance time. In the presence of the analyte βCD, the observed variance can be attributed to α-naphthol and the complex between α-naphthol and βCD. We shall assume that the observed variance is a weighted average depending on the fraction of free α-naphthol, x. This assumption is valid when the complexation kinetics is fast compared to the timescale of the experiment (16). […] The experimental points are found to be well described by the model and the estimated binding constants are in good agreement with literature data considering that other methods and different conditions were used (table 1). In table 1, the diffusion coefficients of the analytes and complexes calculated using eq 2 and assuming a capillary radius of 25 μm are also listed. […] Samples were run in triplicate.

[4] = ACE; complex with βCD; 67 mM phosphate buffer pH 7.4; ±standard deviation
Protocol: Flow induced dispersion and capillary electrophoresis experiments were carried out using an Agilent ^3DCE instrument (Agilent Technologies, Waldbronn, Germany). Uncoated fused silica capillaries of 48.5 cm total length (50 μm i.d., 360 μm o.d.) and 40.5 cm to the detection window were obtained from Polymicro Technologies (Phoenix, Ariz., USA).
New capillaries were conditioned with 1 M NaOH (45 min), Milli-Q water (30 min) and 67 mM phosphate buffer pH 7.4 (30 min). Before a series of experiments the capillary was refreshed by flushing with 1 M NaOH (10 min) and 67 mM phosphate buffer pH 7.4 (10 min). In FIDA, the capillary was preconditioned by flushing the capillary with 0.1 M NaOH (2 min) and run buffer (2 min). The sample was injected by applying a pressure of 50 mbar for 5 sec. Subsequently a pressure of 50 mbar was applied across the capillary to force the sample through it. Finally the sample was detected by UV absorbance at 230 nm. Samples were run in triplicate. The peak variance was obtained by fitting the UV signal to a Gaussian peak shape. The Gaussian in addition to peak variance and peak appearance time the function incorporates a constant A to account for signal height and a constant y0 to account for a possible detector offset.

[5] = complex with βCD; literature data (17); cited from earlier work

Structure (SMILES) | Diffusion coefficient of the free analyte DA [1] | Equilibrium binding constant K [2] | Diffusion coefficient of the free analyte DA [3] | Diffusion coefficient of the complex DAL [3] | Equilibrium binding constant K [4] | Equilibrium binding constant K [5]
COc1ccc2cc([C@H](C)C(=O)O)ccc2c1 [Naproxen, naproxen] | 5.8 · 10^−6g cm^2 s^−1 | 1050 (±185) M^−1 | 5.6 · 10^−6 cm^2 s^−1 | 2.8 · 10^−6 cm^2 s^−1 | 650 (±28)^f M^−1 | –
Oc1cccc2ccccc12 [α-Naphthol, α-naphthol] | 9.2 · 10^−6e cm^2 s^−1 | 2400 (±240) M^−1 | 9.3 · 10^−6 cm^2 s^−1 | 3.3 · 10^−6 cm^2 s^−1 | – | 1250^d M^−1

Source: US9310359B2, “Analyte quantification using flow induced dispersion analysis” (FIDA-TECH APS, priority 2010, dated 2016)
